# Experimental data reported in patent US20100009934A1, “BETA ADRENERGIC RECEPTOR AGONISTS FOR THE TREATMENT OF B-CELL PROLIFERATIVE DISORDERS” (CombinatoRx, Incorporated, priority 2008, published 2010).
# Read-outs that look alike come from different tables or passages of the source.
# System: Human Multiple Myeloma Cells (MM.1S)
# Assay: cells
# Conditions: MM1.S
# [1] = read-out: percent inhibition of cell proliferation, +10 ng/ml IL-6, Salmeterol […], DEX (μM) by row: r9 0.15, r10 0.076, r11 0.038, r12 0.019, r13 0.0096, r14 0
# [2] = read-out: percent inhibition of cell proliferation, salmeterol […], 10 ng/mL IL-6
# [3] = read-out: percent inhibition of cell proliferation, salmeterol […], no IL-6
smiles,measurement,setting,value
OCc1cc(C(O)CNCCCCCCOCCCCc2ccccc2)ccc1O (stereo not shown) [salmeterol],inhibition at 32 pM,[1],22%
same,inhibition at […],[1],52%
same,inhibition at 32 pM,"read-out: percent inhibition of cell proliferation, no IL-6, Salmeterol […], DEX (μM) by row: r9 0.15, r10 0.076, r11 0.038, r12 0.019, r13 0.0096, r14 0",21%
same,inhibition at 100 fM,"read-out: percent inhibition of cell proliferation, salmeterol 0.1 pM, 10 ng/mL IL-6",19%
same,inhibition at 100 fM,"read-out: percent inhibition of cell proliferation, salmeterol 0.1 pM, no IL-6",11%
same,inhibition at 200 fM,"read-out: percent inhibition of cell proliferation, salmeterol 0.2 pM, 10 ng/mL IL-6",30%
same,inhibition at 200 fM,"read-out: percent inhibition of cell proliferation, salmeterol 0.2 pM, no IL-6",25%
same,inhibition at 400 fM,"read-out: percent inhibition of cell proliferation, salmeterol 0.4 pM, 10 ng/mL IL-6",36%
same,inhibition at 400 fM,"read-out: percent inhibition of cell proliferation, salmeterol 0.4 pM, no IL-6",30%
same,inhibition at […],"read-out: percent inhibition of cell proliferation, salmeterol 160 pM, 10 ng/mL IL-6",59%
same,inhibition at […],"read-out: percent inhibition of cell proliferation, salmeterol 160 pM, no IL-6",50%
same,inhibition at […],"read-out: percent inhibition of cell proliferation, salmeterol 320 pM, 10 ng/mL IL-6",66%
same,inhibition at […],"read-out: percent inhibition of cell proliferation, salmeterol 320 pM, no IL-6",59%
same,inhibition at 25 fM,[2],2.8%
same,inhibition at 51 fM,[2],8.6%
same,inhibition at 810 fM,[2],54%
same,inhibition at 25 fM,[3],5%
same,inhibition at 51 fM,[3],6.7%
same,inhibition at 810 fM,[3],43%
